# Test results: patent US8067442B2, “Heterocyclic antiviral compounds” (Roche Palo Alto LLC, priority 2008, dated 2011)
# Biological target: T1, HCV polymerase (NS5B570n-Con1) (Hepatitis C virus genotype 1b, UniProt Q9WMX2)
# T1 construct: a 21 amino acid C-terminal deletion of full-length HCV polymerase; made in house; host or cells: E. coli BL21(DE3) pLysS, plasmid pET17b
# Assay: biochemical
# Set-up: species or system HCV Con1 strain
# Method: The enzymatic activity of HCV polymerase (NS5B570n-Con1) was measured as the incorporation of radiolabeled nucleotide monophosphates into acid insoluble RNA products. Unincorporated radiolabeled substrate was removed by filtration and scintillant was added to the washed and dried filter plate containing radiolabeled RNA product. The amount of RNA product generated by NS5B570n-Con1 at the end of the reaction was directly proportional to the amount of light emitted by the scintillant.
# The HCV polymerase used in the enzymatic activity assay is a 21 amino acid C-terminal deletion of full-length HCV polymerase derived from HCV Con1 strain, genotype 1b (GenBank accession number AJ242654) (NS5B570n-Con1). The NS5B570n-Con1 was sub-cloned downstream to the T7 promoter of the plasmid expression construct pET17b and transformed into E. coli strain BL21(DE3) pLysS for protein expression. A single colony was used to start an innoculum for a 10 L culture in LB media supplemented with 100 μg/mL ampicillin at 37° C. Protein expression was induced by the addition of 0.25 mM isopropyl-β-D-thiogalactopyranoside (IPTG) when the optical density of the culture at […] was 0.8. Induction of protein expression was carried out at 30° C. for 16 h after which the cells were harvested by centrifugation. NS5B570n-Con1 was purified to homogeneity using a three-column purification protocol including subsequent column chromatography on Ni-NTA, SP-Sepharose HP and Superdex 75 resins.
# Enzymatic reactions in the presence of cIRES RNA template (see section [0300]) contained 20 nM cIRES RNA, 20 nM NS5B570n-Con1 enzyme, 0.5 μCi of tritiated UTP (Perkin Elmer catalog no. TRK-412; specific activity: 30 to 60 Ci/mmol), 1 μM each ATP, CTP, and GTP, 40 mM Tris-HCl pH 8.0, 40 mM NaCl, 4 mM DTT (dithiothreitol), 4 mM MgCl2, 5 μl of compound serial diluted in DMSO, and nuclease-free water to a final reaction volume of 50 μl. Enzymatic reactions in the presence of 20 nM cIRES template, 20 nM NS5B570n-Con1 enzyme, 1 μCi of tritiated UTP (Perkin Elmer catalog no. TRK-412; specific activity: 30 to 60 Ci/mmol), 40 mM Tris-HCl pH 8.0, 40 mM NaCl, 4 mM DTT (dithiothreitol), 4 mM MgCl2, 5 μl of compound serial diluted in DMSO, and nuclease-free water to a final reaction volume of 50 μl. Reaction mixtures were assembled in 96-well filter plates (cat #MADVNOB, Millipore Co.) and incubated for 2 h at 30° C. Reactions were stopped by addition of 10% final (v/v) trichloroacetic acid and incubated for 40 min at 4° C. Reactions were filtered, washed with 8 reaction volumes of 10% (v/v) trichloroacetic acetic acid, 4 reaction volumes of 70% (v/v) ethanol, air dried, and 25 μl of scintillant (Microscint 20, Perkin-Elmer) was added to each reaction well.
# Two RNA templates can be used to assay compounds described herein. The cIRES RNA template is 377 nucleotide long and consisting of a partial complementary sequence (36 nucleotides) of the core protein, followed by 341 nucleotide of the complementary sequence of the internal ribosome entry site. The poly A RNA template (GE Amersham catalog number 27-4110) was a homopolymeric RNA pre-annealed to a oligo(rU)16 primer at a molar ratio of 3-to-1 (primer-template). The cIRES template was used in the assay unless otherwise noted.
# The amount of light emitted from the scintillant was converted to counts per minute (CPM) on a Topcount® plate reader (Perkin-Elmer, Energy Range: Low, Efficiency Mode Normal, Count Time: 1 min, Background Subtract: none, Cross talk reduction: Off).
# Data was analyzed in Excel® (Microsoft®) and ActivityBase® (Idbs®). The reaction in the absence of enzyme was used to determine the background signal, which was subtracted from the enzymatic reactions. […] All data was expressed as a percentage of the positive control. The compound concentration at which the enzyme-catalyzed rate of RNA synthesis was reduced by 50% (IC50) was calculated by fitting
row,Compound,IC50 [nM]
1,"CC(C)(C)c1cc(-c2ncc[nH]c2=O)cc2c(C(=O)N3CCOC(CNS(C)(=O)=O)C3)coc12 (stereo not drawn) [Compound 100, N-{4-[7-tert-Butyl-5-(3-oxo-3,4-dihydro-pyrazin-2-yl)-benzofuran-3-carbonyl]-morpholin-2-ylmethyl}-methanesulfonamide]",28
2,"CC(C)(C)c1cc(-c2ccc[nH]c2=O)cc2c(C(=O)N3CCOC(CNS(C)(=O)=O)C3)csc12 (stereo not drawn) [Compound 112, N-{4-[7-tert-Butyl-5-(2-oxo-1,2-dihydro-pyridin-3-yl)-benzo[b]thiophene-3-carbonyl]-morpholin-2-ylmethyl}-methanesulfonamide]",4
3,"CC(C)(C)c1cc(-c2ccc[nH]c2=O)cc2c(C(=O)N3CCCC(F)(CNS(C)(=O)=O)C3)coc12 (stereo not drawn) [Compound 124, N-{1-[7-tert-Butyl-5-(2-oxo-1,2-dihydro-pyridin-3-yl)-benzofuran-3-carbonyl]-3-fluoro-piperidin-3-ylmethyl}-methanesulfonamide]",6
4,"CC(C)(C)c1cc(-c2ccc[nH]c2=O)cc2c(C(=O)N3CCCC(CCS(C)(=O)=O)C3)coc12 (stereo not drawn) [Compound 132, 3-{7-tert-Butyl-3-[3-(2-methanesulfonyl-ethyl)-piperidine-1-carbonyl]-benzofuran-5-yl}-1H-pyridin-2-one]",29
5,"CCOC(=O)c1coc2c(C(C)(C)C)cc(-c3ccc[nH]c3=O)cc12 [Compound I-3, 7-tert-butyl-5-(2-oxo-1,2-dihydro-pyridin-3-yl)-benzofuran-3-carboxylic acid ethyl ester]",258
6,"CC(C)(C)c1cc(-c2ccc[nH]c2=O)cc2c(C(=O)O)coc12 [Compound I-4, 7-tert-butyl-5-(2-oxo-1,2-dihydro-pyridin-3-yl)-benzofuran-3-carboxylic acid]",381
7,CC(C)(C)c1cc(-c2ccc[nH]c2=O)cc2c(C(=O)N3CCOCC3)coc12 [Compound I-7],142
8,CC(C)(C)c1cc(-c2ccc[nH]c2=O)cc2c(CO)coc12 [Compound I-8],515
9,CC(C)NC(=O)c1coc2c(C(C)(C)C)cc(-c3ccc[nH]c3=O)cc12 [Compound I-9],1540
10,CC(C)CNC(=O)c1coc2c(C(C)(C)C)cc(-c3ccc[nH]c3=O)cc12 [Compound I-10],404
11,CC(C)CN(C)C(=O)c1coc2c(C(C)(C)C)cc(-c3ccc[nH]c3=O)cc12 [Compound I-11],475
12,CC(C)(C)c1cc(-c2ccc[nH]c2=O)cc2c(C(=O)N3CCC(O)CC3)coc12 [Compound I-12],63
13,CC(C)(C)c1cc(-c2ccc[nH]c2=O)cc2c(C(=O)N3CCCCC3)coc12 [Compound I-13],48
14,CC(C)(C)c1cc(-c2ccc[nH]c2=O)cc2c(C(=O)N3CCCC(CO)C3)coc12 (stereo not drawn) [Compound I-14],66
15,CC(C)(C)c1cc(-c2ccc[nH]c2=O)cc2c(C(=O)N3CCOC(CO)C3)coc12 (stereo not drawn) [Compound I-15],325
16,CC(C)(C)c1cc(-c2ccc[nH]c2=O)cc2c(C(=O)N3CCC[C@H]3CO)coc12 [Compound I-17],112
17,CC(C)(C)c1cc(-c2ccc[nH]c2=O)cc2c(C(=O)NC3(CO)CCCC3)coc12 [Compound I-18],4800
18,COCCN(CCOC)C(=O)c1coc2c(C(C)(C)C)cc(-c3ccc[nH]c3=O)cc12 [Compound I-19],4350
19,CNC(=O)c1coc2c(C(C)(C)C)cc(-c3ccc[nH]c3=O)cc12 [Compound I-22],770
20,CC(C)(C)c1cc(-c2ccc[nH]c2=O)cc2c(C(=O)Nc3ccccc3)coc12 [Compound I-23],425
21,CCN(CCOC)C(=O)c1coc2c(C(C)(C)C)cc(-c3ccc[nH]c3=O)cc12 [Compound I-25],1330
22,"COC(=O)C1COc2c1cc(-c1ccc[nH]c1=O)cc2C(C)(C)C (stereo not drawn) [Compound I-26, 7-tert-Butyl-5-(2-oxo-1,2-dihydro-pyridin-3-yl)-2,3-dihydro-benzo furan-3-carboxylic acid methyl ester]",37
23,CC(C)(C)c1cc(-c2ccc[nH]c2=O)cc2c(C(=O)N3CCCC(O)C3)coc12 (stereo not drawn) [Compound I-27],186

row,Compound,IC50 [nM]
1,CC(C)(C)c1cc(-c2ccc[nH]c2=O)cc2c(C(=O)N3CCNCC3)coc12 [Compound I-28],1940
2,"COc1cccc(C(=O)c2coc3c(C(C)(C)C)cc(-c4ccc[nH]c4=O)cc23)c1 [Compound I-30, 3-[7-tert-Butyl-3-(3-methoxy-benzoyl)-benzofuran-5-yl]-1H-pyridin-2-one]",329
3,Cc1ccsc1C(=O)c1coc2c(C(C)(C)C)cc(-c3ccc[nH]c3=O)cc12 [Compound I-31],69
4,CC(C)(C)c1cc(-c2ccc[nH]c2=O)cc2c(-c3cccc(C#N)c3)coc12 [Compound I-32],38
5,CC(C)(C)c1cc(-c2ccc[nH]c2=O)cc2c(-c3cccc(O)c3)coc12 [Compound I-34],24
6,CC(C)(C)c1cc(-c2ccc[nH]c2=O)cc2c(-c3ccc(C#N)cc3)coc12 [Compound I-35],72
7,CC(C)(C)OC(=O)N[C@@H]1CCCN(C(=O)c2coc3c(C(C)(C)C)cc(-c4ccc[nH]c4=O)cc23)C1 [Compound I-38],132
8,CC(C)(C)OC(=O)NC1CCN(C(=O)c2coc3c(C(C)(C)C)cc(-c4ccc[nH]c4=O)cc23)CC1 [Compound I-39],4370
9,CC(C)(C)OC(=O)N[C@H]1CCCN(C(=O)c2coc3c(C(C)(C)C)cc(-c4ccc[nH]c4=O)cc23)C1 [Compound I-40],1410
10,CC(C)(C)OC(=O)NCC1CCN(C(=O)c2coc3c(C(C)(C)C)cc(-c4ccc[nH]c4=O)cc23)C1 (stereo not drawn) [Compound I-45],76
11,CC(C)(C)c1cc(-c2ccc[nH]c2=O)cc2c(C(=O)N3CCC[C@H](NS(C)(=O)=O)C3)coc12 [Compound I-47],172
12,CC(C)(C)c1cc(-c2ccc[nH]c2=O)cc2c(C(=O)N3CCCC3)coc12 [Compound I-51],12
13,CC(=O)N1CCN(C(=O)c2coc3c(C(C)(C)C)cc(-c4ccc[nH]c4=O)cc23)CC1 [Compound I-52],1250
14,CN(C)[C@H]1CCN(C(=O)c2coc3c(C(C)(C)C)cc(-c4ccc[nH]c4=O)cc23)C1 [Compound I-53],454
15,CC(C)(C)c1cc(-c2ccc[nH]c2=O)cc2c(C(=O)N3CCC(NC(=O)C(F)(F)F)CC3)coc12 [Compound I-55],2280
16,CC(C)(C)c1cc(-c2ccc[nH]c2=O)cc2c(C(=O)N3CCC(C(N)=O)CC3)coc12 [Compound I-58],282
17,CC(C)(C)c1cc(-c2ccc[nH]c2=O)cc2c(C(=O)N3CCC(NC(=O)C(F)(F)F)C3)coc12 (stereo not drawn) [Compound I-60],51
18,CC(C)(C)c1cc(-c2ccc[nH]c2=O)cc2c(C(=O)N3CCCC(C(N)=O)C3)coc12 (stereo not drawn) [Compound I-61],66
19,CC(C)(C)c1cc(-c2ccc[nH]c2=O)cc2c(-c3cccc(CN)c3)coc12 [Compound I-62],893
20,COC(=O)[C@@H]1C[C@@H](O)CN1C(=O)c1coc2c(C(C)(C)C)cc(-c3ccc[nH]c3=O)cc12 [Compound I-63],1610
21,CC(C)(C)c1cc(-c2ccc[nH]c2=O)cc2c(C(=O)N3CCC(O)(C(N)=O)CC3)coc12 [Compound I-64],97
22,CC(C)(C)c1cc(-c2ccc[nH]c2=O)cc2c(C(=O)N3CCC(O)C3)coc12 (stereo not drawn) [Compound I-65],126
